Experimental data published in patent US20250235501A1, “Methods and Compositions for Treating or Preventing Neurological Injury or Neurological Disorders” (University of Connecticut, priority 2024, published 2025).

Tested on: NMDARs (GluN1a, GluN2a, GluN2b)
Experiment: Surface expression of NMDARs in HEK293T cells co-transfected with NMDARs and TRPM2 (WB)
Format: cell-based, human
Settings: 10 μM peptide overnight; NMDARs/TRPM2 vs NMDARs/EGFP
Protocol: FIGS. 4K-4N show the surface expression of NMDARs in HEK-293T cells co-transfected with TRPM2 or EGFP with the treatment of PKC activator PMA (FIG. 4K) and inhibitor Stausporine (FIG. 4L). Membrane (Mem) and cytocol (Cyto) NMDARs were analyzed and averaged from 3 independent experiments with 1 μM PMA treatment (FIG. 4N) or 1 μM Stausporine treatment (FIG. 4L) for overnight. Pan-cadherin and β-tubulin were loading controls for membrane and cytosol protein, respectively (*, p<0.05, **, p<0.01, ***, p<0.001, unpaired t-test, mean±SEM, n=3/group).
FIGS. 5C-5F effects of TAT-EE3 on surface expression of NMDARs. HEK293T cells co-transfected with NMDARs with TRPM2 (+M2) or EGFP vector (Con) were treated with 10 μM TAT-SC (FIG. 5C) or TAT-EE3 (FIG. 5D) overnight. Membrane (Mem) and cytosol (Cyto) proteins of NMDARs in TAT-SC (FIG. 5E) and TAT-EE3 (FIG. 5F) treated groups were assessed by WBs and analyzed in reference to Pan-cadherin or β-tubulin (**, p<0.01, ***, p<0.001, unpaired t-test, mean±SEM). All the results were replicated in at least 3 independent experiments.
Pan-cadherin and β-tubulin were used as loading control for membrane and cytosolic protein extraction.
were ordered from GenScript Biotech, and dissolved in PBS to make a stock concentration at 10 mM. HEK-293T cells or isolated neurons were treated with TAT-SC or TAT-EE3 at a concentration of 10 μM for at least 8 h prior to use. Mice were injected with TAT-SC or TAT-EE3 intraperitoneally (ip) at a dose of 100 nmol/kg.
HEK293T cells were cultured in Dulbecco's Modified Eagle's medium (DMEM) (Thermal Fisher Scientific, 12100-038) supplemented with 10% BGS (HyClone, SH30541.03) and 0.5% penicillin/streptomycin (Thermal Fisher Scientific, 15140-122) at 37° C. and 5% CO2. 8 h prior to transfection, culture medium was replaced with DMEM supplemented only with 2.5% BGS. Cells were transfected when at a confluence about 80-90% using Lipofectamine® 3000 Transfection Kit (Thermal Fisher Scientific, 2232162) based on instruction.
NP-40/Triton lysis buffer ([…], 1% Triton™ X-100, 150 mM NaCl, 1 mM EDTA, 50 mM Tris, pH=8.0) containing proteinase inhibitors and phosphatase inhibitors was used to lyse both cultured cells and frozen brain tissue. Surface protein was extracted using Pierce® Cell Surface Protein Isolation Kit (Thermal Fisher Scientific, 89881) in transfected HEK-293T cells, and using ProteoExtract™ Native Membrane Protein Extraction Kit (Calbiochem, 444810) in brain tissue based on instructions. […] Protein concentration was measured using Pierce™ Rapid Gold BCA Protein Assay Kit.
30-50 μg of total protein was loaded and separated proteins were transferred to Nitrocellulose membranes. […] Band intensity was quantified using ImageJ software and normalized with appropriate loading controls.

TAT-EE3: membrane permeable disrupting peptide, sequence YGRKKRRQRRREEDTDSSEEMLALAEE (SEQ ID NO: 4)
enhancement of NMDAR surface expression by TRPM2: eliminated the enhancement
